Test results from paper PMC3682184 (Experimental Parasitology, 2013).

B1: NADP-dependent secondary alcohol dehydrogenase (ADH-1) (Trichomonas vaginalis G3) (protein)
chain: MTFELPKTMKAFAMRKIGEVGWIEKPVPECGPNDAICRPLALAPCTSDIHTVWAGAIGERHDMILGHEAVGQVVKIGSEVKNLKVGDKVLVPAVTPDWGSEAAQEGFPAHSGGMLGGWKFSNFKDGVFAEYFHVNEADANLAKLPEGLTPRDVIMCSDMMTTGFHGAELAEVKLGDIVVVIGIGPVGLMSVRGAALMGASRIFAVGSRPHCCDTAVQYGATDIINYKNGDIVEQILKATGGKGVDRVIIAGGDVHTFAQAIKMIRAGGVIGNVNYLGEGEMIDVPRVEWGVGMGHKFIHGGLTPGGALRMEKMANLIKYKKVDPTKLITHEFKGLEKVEDALMLMKDKPVDLIKPVVLIEYNDKL

Experiments:
[1] = target: T1, NADP-dependent secondary alcohol dehydrogenase (ADH-1) (Trichomonas vaginalis, UniProt A2DJ40); assay: NADPH oxidation at […] nm, acetaldehyde reduction; assay type: biochemical
T1 sequence (A2DJ40 1-365): B1 chain

[2] = target: T2, NADP-dependent secondary alcohol dehydrogenase (E. histolytica homologue of ADH-1) (Entamoeba histolytica, UniProt P35630); assay: NADPH oxidation at […] nm in cell extract, acetaldehyde reduction; assay type: biochemical
T2 sequence (P35630 1-366): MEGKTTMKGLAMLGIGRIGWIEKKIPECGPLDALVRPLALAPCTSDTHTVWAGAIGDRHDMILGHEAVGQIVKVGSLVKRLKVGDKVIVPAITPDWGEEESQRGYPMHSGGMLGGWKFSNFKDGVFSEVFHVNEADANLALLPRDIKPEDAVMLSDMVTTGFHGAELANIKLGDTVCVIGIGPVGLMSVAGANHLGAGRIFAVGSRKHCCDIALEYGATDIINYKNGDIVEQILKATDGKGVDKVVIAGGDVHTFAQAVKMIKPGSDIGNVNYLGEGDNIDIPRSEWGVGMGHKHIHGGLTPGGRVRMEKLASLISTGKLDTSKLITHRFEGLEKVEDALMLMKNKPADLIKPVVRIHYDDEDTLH

[3] = substrate: NC(=O)c1ccc[n+]([C@@H]2O[C@H](COP(=O)(O)OP(=O)(O)OC[C@H]3O[C@@H](n4cnc5c(N)ncnc54)[C@H](OP(=O)(O)O)[C@@H]3O)[C@@H](O)[C@H]2O)c1; assay: purified protein; conditions: 100 mM 2-propanol, pH 6.75, 37 °C, varied: cofactor
[4] = substrate: CC(C)O; assay: purified protein; conditions: 1 mM NADP+, pH 6.75, 37 °C

| Molecule | IC50 [1] | inhibition at 100 µM ([2]; read-out: Inhibition CoA ^c aldehyde reduction) | inhibition at 200000 µM ([2]; read-out: Inhibition 2-propanol ^b aldehyde reduction) | Km [3] | Km [4] |
| --- | --- | --- | --- | --- | --- |
| CC(C)(COP(=O)(O)OP(=O)(O)OC[C@H]1O[C@@H](n2cnc3c(N)ncnc32)[C@H](O)[C@@H]1OP(=O)(O)O)[C@@H](O)C(=O)NCCC(=O)NCCS [coenzyme A] | 0.063 ± 0.017 mM | 62 ± 22% |  |  |  |
| CC(C)O [2-propanol] | 96 ± 11 mM |  | 80 ± 11% |  |  |
| B1 |  |  |  | 0.0412 ± 0.0044 mM | 11.57 ± 1.25 mM |
